According to ChEMBL document CHEMBL3612022, “Regioselectively controlled synthesis of 3(5)-(trifluoromethyl)pyrazolylbenzenesulfonamides and their effects on a pathological pain model in mice” (Eur J Med Chem, 2015):
Activity calls are given as the source filed them.

Assays:
Mus musculus [1] = assay: Antiedematogenic effect in Swiss mouse assessed as inhibition of CFA-induced paw edema at 300 mg/kg, po after 2 hrs; type: functional
Mus musculus [2] = assay: Locomotor activity in Swiss mouse assessed as motor impairment at 300 mg/kg, po by rotarod test; type: toxicity, organism-based; conditions: in vivo
Mus musculus [3] = assay: Locomotor activity in Swiss mouse assessed as motor impairment at 300 mg/kg, po by open-field test; type: toxicity, organism-based; conditions: in vivo
Mus musculus [4] = assay: Antihyperalgesic effect in Swiss mouse assessed as inhibition of CFA-induced paw withdrawal threshold at 300 mg/kg, po after 2 hrs; type: functional
Mus musculus [5] = assay: Antihyperalgesic effect in Swiss mouse assessed as inhibition of CFA-induced paw withdrawal threshold at 300 mg/kg, po after 0.5 to 6 hrs; type: functional, organism-based
Mus musculus [6] = assay: Antihyperalgesic effect in po dosed Swiss mouse assessed as inhibition of CFA-induced paw withdrawal threshold after 2 hrs; type: functional
Mus musculus [7] = assay: Antiedematogenic effect in Swiss mouse assessed as inhibition of CFA-induced paw edema at 300 mg/kg, po after 1 to 6 hrs; type: functional, organism-based

## NS(=O)(=O)c1ccc(N2N=C(c3ccc(Br)cc3)CC2(O)C(F)(F)F)cc1 (stereo not drawn)
Mus musculus [1]
  inhibition in vivo at 300 mg/kg: 46%
Mus musculus [2]
  Activity: Non-toxic
Mus musculus [3]
  Activity: Non-toxic
Mus musculus [4]
  inhibition in vivo at 300 mg/kg: 57%

## Cc1ccc(C2=NN(c3ccc(S(N)(=O)=O)cc3)C(O)(C(F)(F)F)C2)cc1 (stereo not drawn)
Mus musculus [1]
  inhibition in vivo at 300 mg/kg: 45%
Mus musculus [5]
  inhibition: Active
Mus musculus [6]
  IC: 539.3 mg/kg
Mus musculus [2]
  Activity: Non-toxic
Mus musculus [7]
  inhibition: Active
Mus musculus [3]
  Activity: Non-toxic
Mus musculus [4]
  inhibition in vivo at 300 mg/kg: 64%

## Cc1ccc(-c2cc(C(F)(F)F)nn2-c2ccc(S(N)(=O)=O)cc2)cc1 [CELECOXIB]
Mus musculus [1]
  inhibition in vivo at 300 mg/kg: 53%
Mus musculus [5]
  inhibition: Active
Mus musculus [6]
  IC: 652.1 mg/kg
Mus musculus [4]
  inhibition in vivo at 300 mg/kg: 77%

## NS(=O)(=O)c1ccc(N2N=C(c3ccc(Cl)cc3)CC2(O)C(F)(F)F)cc1 (stereo not drawn)
Mus musculus [2]
  Activity: Non-toxic
Mus musculus [3]
  Activity: Non-toxic
Mus musculus [4]
  inhibition in vivo at 300 mg/kg: 57%

## NS(=O)(=O)c1ccc(N2N=C(c3ccco3)CC2(O)C(F)(F)F)cc1 (stereo not drawn)
Mus musculus [1]
  inhibition in vivo at 300 mg/kg: 48%
Mus musculus [2]
  Activity: Non-toxic
Mus musculus [3]
  Activity: Non-toxic
Mus musculus [4]
  inhibition: inactive

## COc1ccc(C2=NN(c3ccc(S(N)(=O)=O)cc3)C(O)(C(F)(F)F)C2)cc1 (stereo not drawn)
Mus musculus [1]
  inhibition in vivo at 300 mg/kg: 46%
Mus musculus [2]
  Activity: Non-toxic
Mus musculus [3]
  Activity: Non-toxic
Mus musculus [4]
  inhibition: inactive

## NS(=O)(=O)c1ccc(N2N=C(c3ccccc3)CC2(O)C(F)(F)F)cc1 (stereo not drawn)
Mus musculus [1]
  inhibition in vivo at 300 mg/kg: 44%
Mus musculus [2]
  Activity: Non-toxic
Mus musculus [3]
  Activity: Non-toxic
Mus musculus [4]
  inhibition in vivo at 300 mg/kg: 52%

## NS(=O)(=O)c1ccc(N2N=C(c3ccc(F)cc3)CC2(O)C(F)(F)F)cc1 (stereo not drawn)
Mus musculus [2]
  Activity: Non-toxic
Mus musculus [3]
  Activity: Non-toxic
Mus musculus [4]
  inhibition in vivo at 300 mg/kg: 62%
